This is an account of results in article PMC9147192, “Small Molecule Arranged Thermal Proximity Coaggregation (smarTPCA)—A Novel Approach to Characterize Protein–Protein Interactions in Living Cells by Similar Isothermal Dose–Responses” (International Journal of Molecular Sciences, 2022).

For orientation: Hill slope means the slope factor of the fitted curve.

What all share (test): TPP-CCR in living HL-60 cells
Common to all, as to assay type: cell-based

One experiment deals with T1, ANP32E (Homo sapiens, UniProt Q9BTT0).
T1 construct: dose–responses (mean over replicates), derived from TPP-CCR experiments in living cells; endogenous in cells; host or cells: HL-60 cells (ATCC No. CCL-240)
T1 sequence (Q9BTT0 whole entry): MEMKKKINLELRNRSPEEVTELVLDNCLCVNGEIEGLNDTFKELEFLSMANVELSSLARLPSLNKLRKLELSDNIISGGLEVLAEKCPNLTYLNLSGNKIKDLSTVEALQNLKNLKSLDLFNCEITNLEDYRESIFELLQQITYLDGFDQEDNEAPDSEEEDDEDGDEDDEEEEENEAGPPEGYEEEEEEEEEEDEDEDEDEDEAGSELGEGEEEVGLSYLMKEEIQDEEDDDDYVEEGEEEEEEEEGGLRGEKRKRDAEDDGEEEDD

The target in the next experiment is T2, SCO1 (Homo sapiens, UniProt O75880).
T2 construct: endogenous in cells; host or cells: HL-60 (ATCC CCL-240)
T2 sequence (O75880 68-301): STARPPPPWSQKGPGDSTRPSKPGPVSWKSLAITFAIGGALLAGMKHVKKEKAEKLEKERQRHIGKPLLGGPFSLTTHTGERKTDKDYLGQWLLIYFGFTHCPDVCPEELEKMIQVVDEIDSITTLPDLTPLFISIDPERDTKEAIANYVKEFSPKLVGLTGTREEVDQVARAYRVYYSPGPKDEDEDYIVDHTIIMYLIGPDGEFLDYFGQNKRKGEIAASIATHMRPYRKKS

The next experiment has as its target T3, DDX18 (Homo sapiens, UniProt Q9NVP1).
T3 construct: endogenous in cells; host or cells: HL-60 (ATCC CCL-240)
T3 sequence (Q9NVP1 1-670): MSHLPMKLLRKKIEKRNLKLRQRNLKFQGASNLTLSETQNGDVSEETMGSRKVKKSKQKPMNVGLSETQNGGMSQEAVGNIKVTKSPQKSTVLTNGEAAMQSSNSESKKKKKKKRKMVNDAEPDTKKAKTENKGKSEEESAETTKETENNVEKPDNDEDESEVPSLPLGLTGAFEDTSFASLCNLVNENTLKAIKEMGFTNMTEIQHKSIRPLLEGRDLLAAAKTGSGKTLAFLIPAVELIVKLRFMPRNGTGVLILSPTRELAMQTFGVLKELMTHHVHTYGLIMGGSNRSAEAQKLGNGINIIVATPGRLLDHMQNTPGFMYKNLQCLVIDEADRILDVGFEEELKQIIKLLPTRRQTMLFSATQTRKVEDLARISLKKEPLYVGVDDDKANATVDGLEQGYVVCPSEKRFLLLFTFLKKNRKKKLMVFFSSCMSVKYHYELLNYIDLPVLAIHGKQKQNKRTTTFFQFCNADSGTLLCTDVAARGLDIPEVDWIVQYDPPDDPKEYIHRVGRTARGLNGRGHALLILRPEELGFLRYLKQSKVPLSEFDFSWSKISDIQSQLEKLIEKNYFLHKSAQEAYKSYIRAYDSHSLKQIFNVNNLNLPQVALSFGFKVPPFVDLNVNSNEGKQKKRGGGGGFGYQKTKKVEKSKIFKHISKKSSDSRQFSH

[1] abbreviates: living HL-60 cells, […] °C, TMT-MS.

The structures appear in SMILES notation.

Take `Cc1cnc(Nc2ccc(F)cc2Cl)nc1-c1c[nH]c(C(=O)N[C@H](CO)c2cccc(Cl)c2)c1` [ERK 11e]: the Hill slope stood at 0.58 on ANP32E (TPP-CCR, living cells, ANP32E); 1.25 on SCO1 (TPP-CCR, living cells, SCO1); 0.20 on DDX18 (TPP-CCR, living cells, DDX18). The “Hill slope (ANP32E)” value at ANP32E (setting [1]) is recorded as 0.58. The EC50 was 0.166 µM at ANP32E (living HL-60 cells, […] °C, TMT-MS, read-out: pEC50 (ANP32E) (converted)); 2.82 µM at SCO1 (living HL-60 cells, […] °C, TMT-MS, read-out: pEC50 (SCO1) (converted)); 0.2 µM on DDX18 (living HL-60 cells, […] °C, TMT-MS, read-out: pEC50 (DDX18) (converted)). In addition, the “Hill slope (SCO1)” value on SCO1 (setting [1]) worked out at 1.25. Also, the “Hill slope (DDX18)” value on DDX18 (setting [1]) is on record as 0.20.
